Key:
[1] = system: MS2; conditions: in 12 hours; cited from earlier work
[2] = system: poliovirus; conditions: in 12 hours; cited from earlier work
[3] = after 60 days; cited from earlier work
[4] = system: L. pneumophila serogroup 1; conditions: ion used alone; cited from earlier work
[5] = system: Klebsiella terrigena; experiment: Disinfection of seeded test waters, log reduction of Klebsiella; conditions: seeded municipal water
[6] = system: MS2 bacteriophage; experiment: Disinfection of seeded test waters, log reduction of MS2 virus; conditions: contact up to 24 hours

Compound	log inactivation of MS2 [1] [log]	log inactivation of poliovirus [2] [log]	share of initial input detectable in the test chambers [3] [%]	contact time to achieve complete (6 log) inactivation of Legionella [4] [hours]	log reduction of Klebsiella ([5]; 60 minute contact time)	log reduction of Klebsiella ([5]; 240 minutes contact time)	reduction of MS2 virus ([6]; seeded municipal water)	reduction of MS2 virus ([6]; seeded untreated natural waters)
[Cu+2] [copper ions]	4.0	1.3	75	2.5	less than 3 log	less than 5 log		
silver ions			44	24	5 log		No effective reduction	No effective reduction
